Results published in US20160367623A1, “AGONISTS OF GUANYLATE CYCLASE USEFUL FOR THE TREATMENT OF GASTROINTESTINAL DISORDERS, INFLAMMATION, CANCER AND OTHER DISORDERS” (priority 2015, published 2016).
Bridge positions count the residues as written; N and C are the ends. Ends that are not written are not given here.

System: patients with chronic idiopathic constipation (CIC)
Assay: Second phase 3 CIC trial: CSBM weekly responders by week
Format: in vivo, human
Details: MRA
Excerpt: Both trials include a two-week pre-treatment baseline period, a 12-week treatment period, and a two-week post-treatment period. The phase 3 CIC program was designed to support regulatory submission in the U. S.
The primary endpoint for both trials is the proportion of durable overall responders (%), which is the current regulatory endpoint required for U.S. approval in CIC. The FDA has defined a durable overall responder as a patient who fulfills both ≧3 complete spontaneous bowel movements (CSBMs) per week plus an increase of ≧1 CSBM from baseline in the same week, for 9 out of the 12 treatment weeks. In addition, the same patient must be an overall responder for at least 3 of the last 4 treatment weeks in order to be considered a durable overall responder.
Patients were selected using Rome 3 criteria modified for CIC and had (1) fewer than 3 defecations per week, (2) loose stools occurring rarely without laxatives, (3) inadequate criteria for irritable bowel syndrome with constipation (IBS-C), and (4) at least two of the following applied to at least 25% of defecations: (a) straining during evacuation, (b) lumpy or hard stools, (c) sensation of anorectal obstruction or blockage. Rome 3 requires patients to fulfill the criteria for the last 3 months with symptom onset at least 6 months prior to diagnosis.

[1] = Week 2, 6 mg, ITT Population-Excluding Duplicate Patients
[2] = Week 2, Active Combined, ITT Population-Excluding Duplicate Patients
[3] = Week 2, Active Combined, ITT Population
[4] = Week 3, 3 mg, ITT Population-Excluding Duplicate Patients
[5] = Week 3, 6 mg, ITT Population-Excluding Duplicate Patients
[6] = Week 3, Active Combined, ITT Population-Excluding Duplicate Patients
[7] = Week 3, Active Combined, ITT Population
[8] = Week 4, 3 mg, ITT Population-Excluding Duplicate Patients
[9] = Week 4, 6 mg, ITT Population-Excluding Duplicate Patients
[10] = Week 4, Active Combined, ITT Population-Excluding Duplicate Patients
[11] = Week 4, Active Combined, ITT Population
[12] = Week 5, 3 mg, ITT Population-Excluding Duplicate Patients
[13] = Week 5, 6 mg, ITT Population-Excluding Duplicate Patients
[14] = Week 5, Active Combined, ITT Population-Excluding Duplicate Patients

## Asn^1-Asp^2-Glu^3-Cys^4-Glu^5-Leu^6-Cys^7-Val^8-Asn^9-Val^10-Ala^11-Cys^12-Thr^13-Gly^14-Cys^15-Leu^16 (NDECELCVNVACTGCL; disulfide 4-12, 7-15) [Plecanatide, uroguanylin analogue, guanylate cyclase-C agonist; (C4:C12, C7:C15) bicycle peptide]
Week 2, 6 mg minus placebo, All Randomized (includes Duplicate Patients)
  Difference in Proportions (adjusted): 0.114
Week 2, 6 mg vs placebo, All Randomized (includes Duplicate Patients)
  Odds Ratio (adjusted): 0.513
Week 2, 6 mg, All Randomized (includes Duplicate Patients)
  CSBM Weekly Responders, n (%): 132 (28.0) n (%)
Week 2, 6 mg, ITT Population
  CSBM Weekly Responders, n (%): 123 (27.4) n (%)
  Non-Responders, n (%): 326 (72.6) n (%)
[1]
  CSBM Weekly Responders, n (%): 123 (27.8) n (%)
  Non-Responders, n (%): 320 (72.2) n (%)
Week 2, Active Combined, All Randomized (includes Duplicate Patients)
  CSBM Weekly Responders, n (%): 252 (26.8) n (%)
Week 2, 3 mg minus placebo, ITT Population-Excluding Duplicate Patients
  Difference in Proportions (adjusted): 0.086
Week 2, 3 mg minus placebo, ITT Population
  Difference in Proportions (adjusted): 0.087
Week 2, 3 mg vs placebo, ITT Population-Excluding Duplicate Patients
  Odds Ratio (adjusted): 0.592
Week 2, 3 mg vs placebo, ITT Population
  Odds Ratio (adjusted): 0.59
Week 2, 6 mg minus placebo, ITT Population-Excluding Duplicate Patients
  Difference in Proportions (adjusted): 0.111
Week 2, 6 mg minus placebo, ITT Population
  Difference in Proportions (adjusted): 0.108
Week 2, 6 mg vs placebo, ITT Population-Excluding Duplicate Patients
  Odds Ratio (adjusted): 0.523
Week 2, 6 mg vs placebo, ITT Population
  Odds Ratio (adjusted): 0.53
[2]
  CSBM Weekly Responders, n (%): 233 (26.6) n (%)
  Non-Responders, n (%): 644 (73.4) n (%)
[3]
  CSBM Weekly Responders, n (%): 235 (26.3) n (%)
  Non-Responders, n (%): 657 (73.7) n (%)
Week 3, 3 mg minus placebo, All Randomized (includes Duplicate Patients)
  Difference in Proportions (adjusted): 0.070
Week 3, 3 mg vs placebo, All Randomized (includes Duplicate Patients)
  Odds Ratio (adjusted): 0.691
Week 3, 3 mg, All Randomized (includes Duplicate Patients)
  CSBM Weekly Responders, n (%): 135 (28.7) n (%)
Week 3, 3 mg, ITT Population
  CSBM Weekly Responders, n (%): 125 (28.2) n (%)
  Non-Responders, n (%): 318 (71.8) n (%)
[4]
  CSBM Weekly Responders, n (%): 122 (28.1) n (%)
  Non-Responders, n (%): 312 (71.9) n (%)
Week 3, 6 mg minus placebo, All Randomized (includes Duplicate Patients)
  Difference in Proportions (adjusted): 0.056
Week 3, 6 mg vs placebo, All Randomized (includes Duplicate Patients)
  Odds Ratio (adjusted): 0.738
Week 3, 6 mg, ITT Population
  CSBM Weekly Responders, n (%): 120 (26.7) n (%)
  Non-Responders, n (%): 329 (73.3) n (%)
[5]
  CSBM Weekly Responders, n (%): 119 (26.9) n (%)
  Non-Responders, n (%): 324 (73.1) n (%)
Week 3, 3 mg minus placebo, ITT Population-Excluding Duplicate Patients
  Difference in Proportions (adjusted): 0.054
Week 3, 3 mg minus placebo, ITT Population
  Difference in Proportions (adjusted): 0.057
Week 3, 3 mg vs placebo, ITT Population-Excluding Duplicate Patients
  Odds Ratio (adjusted): 0.750
Week 3, 3 mg vs placebo, ITT Population
  Odds Ratio (adjusted): 0.739
Week 3, 6 mg minus placebo, ITT Population-Excluding Duplicate Patients
  Difference in Proportions (adjusted): 0.042
Week 3, 6 mg minus placebo, ITT Population
  Difference in Proportions (adjusted): 0.043
Week 3, 6 mg vs placebo, ITT Population-Excluding Duplicate Patients
  Odds Ratio (adjusted): 0.798
Week 3, 6 mg vs placebo, ITT Population
  Odds Ratio (adjusted): 0.796
[6]
  CSBM Weekly Responders, n (%): 241 (27.5) n (%)
  Non-Responders, n (%): 636 (72.5) n (%)
[7]
  CSBM Weekly Responders, n (%): 245 (27.5) n (%)
  Non-Responders, n (%): 647 (72.5) n (%)
Week 4, 3 mg minus placebo, All Randomized (includes Duplicate Patients)
  Difference in Proportions (adjusted): 0.093
Week 4, 3 mg vs placebo, All Randomized (includes Duplicate Patients)
  Odds Ratio (adjusted): 0.611
Week 4, 3 mg, ITT Population
  CSBM Weekly Responders, n (%): 132 (29.8) n (%)
  Non-Responders, n (%): 311 (70.2) n (%)
[8]
  CSBM Weekly Responders, n (%): 130 (30.0) n (%)
  Non-Responders, n (%): 304 (70.0) n (%)
Week 4, 6 mg minus placebo, All Randomized (includes Duplicate Patients)
  Difference in Proportions (adjusted): 0.082
Week 4, 6 mg vs placebo, All Randomized (includes Duplicate Patients)
  Odds Ratio (adjusted): 0.644
Week 4, 6 mg, ITT Population
  CSBM Weekly Responders, n (%): 127 (28.3) n (%)
  Non-Responders, n (%): 322 (71.7) n (%)
[9]
  CSBM Weekly Responders, n (%): 126 (28.4) n (%)
  Non-Responders, n (%): 317 (71.6) n (%)
Week 4, 3 mg minus placebo, ITT Population-Excluding Duplicate Patients
  Difference in Proportions (adjusted): 0.082
Week 4, 3 mg minus placebo, ITT Population
  Difference in Proportions (adjusted): 0.082
Week 4, 3 mg vs placebo, ITT Population-Excluding Duplicate Patients
  Odds Ratio (adjusted): 0.650
Week 4, 3 mg vs placebo, ITT Population
  Odds Ratio (adjusted): 0.648
Week 4, 6 mg minus placebo, ITT Population-Excluding Duplicate Patients
  Difference in Proportions (adjusted): 0.067
Week 4, 6 mg minus placebo, ITT Population
  Difference in Proportions (adjusted): 0.067
Week 4, 6 mg vs placebo, ITT Population-Excluding Duplicate Patients
  Odds Ratio (adjusted): 0.698
Week 4, 6 mg vs placebo, ITT Population
  Odds Ratio (adjusted): 0.697
[10]
  CSBM Weekly Responders, n (%): 256 (29.2) n (%)
  Non-Responders, n (%): 621 (70.8) n (%)
[11]
  CSBM Weekly Responders, n (%): 259 (29.0) n (%)
  Non-Responders, n (%): 633 (71.0) n (%)
Week 5, 3 mg minus placebo, All Randomized (includes Duplicate Patients)
  Difference in Proportions (adjusted): 0.119
Week 5, 3 mg vs placebo, All Randomized (includes Duplicate Patients)
  Odds Ratio (adjusted): 0.560
Week 5, 3 mg, ITT Population
  CSBM Weekly Responders, n (%): 154 (34.8) n (%)
  Non-Responders, n (%): 289 (65.2) n (%)
[12]
  CSBM Weekly Responders, n (%): 153 (35.3) n (%)
  Non-Responders, n (%): 281 (64.7) n (%)
Week 5, 6 mg minus placebo, All Randomized (includes Duplicate Patients)
  Difference in Proportions (adjusted): 0.061
Week 5, 6 mg vs placebo, All Randomized (includes Duplicate Patients)
  Odds Ratio (adjusted): 0.731
Week 5, 6 mg, ITT Population
  CSBM Weekly Responders, n (%): 133 (29.6) n (%)
  Non-Responders, n (%): 316 (70.4) n (%)
[13]
  CSBM Weekly Responders, n (%): 132 (29.8) n (%)
  Non-Responders, n (%): 311 (70.2) n (%)
Week 5, 3 mg minus placebo, ITT Population-Excluding Duplicate Patients
  Difference in Proportions (adjusted): 0.107
Week 5, 3 mg minus placebo, ITT Population
  Difference in Proportions (adjusted): 0.105
Week 5, 3 mg vs placebo, ITT Population-Excluding Duplicate Patients
  Odds Ratio (adjusted): 0.596
Week 5, 3 mg vs placebo, ITT Population
  Odds Ratio (adjusted): 0.602
Week 5, 6 mg minus placebo, ITT Population-Excluding Duplicate Patients
  Difference in Proportions (adjusted): 0.053
Week 5, 6 mg minus placebo, ITT Population
  Difference in Proportions (adjusted): 0.054
Week 5, 6 mg vs placebo, ITT Population-Excluding Duplicate Patients
  Odds Ratio (adjusted): 0.764
Week 5, 6 mg vs placebo, ITT Population
  Odds Ratio (adjusted): 0.762
[14]
  CSBM Weekly Responders, n (%): 285 (32.5) n (%)
  Non-Responders, n (%): 592 (67.5) n (%)
Week 5, Active Combined, ITT Population
  CSBM Weekly Responders, n (%): 287 (32.2) n (%)
